# Experimental data reported in US20250295777A1, “HOMEOPATHIC PHARMACEUTICAL COMPOSITION FOR TREATING UPPER AND LOWER RESPIRATORY TRACT DISEASES” (priority 2022, published 2025).
# Counter-ions that a name gives are not always drawn. Like-named read-outs stand apart in the source and are kept apart here.
# Legend:
# [1] = tested on: ciliated epithelium (upper respiratory tract epithelium cilia); conditions: cited from earlier work
# [2] = tested on: upper respiratory tract ciliated epithelium cilia; experiment: beating frequency of the ciliated epithelium cilia (in vitro, test sample vs isotonic NaCl control); format: cell-based, human (patients)
# Description: (§1) To determine the efficiency of mucociliary clearance, the authors of the present invention measured the frequency (Frequency) and period (Time) of the upper respiratory tract ciliated epithelium cilia beating using methods for determining these parameters that are well known to persons skilled in the art and have been repeatedly described in the prior art. The authors of the invention took into account that sufficient functioning of the ciliated epithelium cilia is the most important parameter of the effectiveness of mucociliary clearance (Duchateau G S M J E, Graamans K., Zuidema J., Merkus F W H M.—Laryngoscope 1985; 95:854-859), and, therefore, they measured the percentage of ciliated epithelium cells with motile cilia (Movement). Non-limiting (illustrative) examples of methods for determining the parameters of the upper respiratory tract ciliated epithelium cilia beating are given in V. V. Shabalin et al., Biophysical Methods for Studying Mucociliary Transport of the Normal and Pathological Upper and Lower Respiratory Tract.—See in Problems of Therapeutic and Surgical Pulmonology, collection of conference materials, Saint Petersburg, 1997, pp. 44-45.
# (§2) The effect of the composition of the invention on the performance of the ciliated epithelium cilia and the lifespan of the ciliated epithelium was studied in comparison with separate components (Apis mellifica, Eupharsia officinalis, Allium cepa, Tatrarus stibiatus, Hepar sulphur, and Arnica montana separately), with the composition according to patent RU 2748548 and with an isotonic NaCl solution (0.9% solution).
# (§3) The study included patients with acute and chronic rhinosinusitis, as well as patients without a history of otolaryngological disorders.
# (§4) It is well known to persons skilled in the art that the optimal medium for the ciliated epithelium functioning is a saline (0.9% NaCl solution) and that this medium allows the ciliated epithelium cells to move synchronously and live the longest; therefore, ciliated epithelium treated with a saline was used as a control.
# (§5) The results include the following parameters: • Frequency 1, Hz—the beating frequency of the ciliated epithelium cilia in the test sample, • Frequency 2, Hz—the beating frequency of the ciliated epithelium cilia in the control (isotonic NaCl solution), • Time 1, min—lifespan of the ciliated epithelium cilia in the test sample, • Time 2, min—lifespan of the ciliated epithelium cilia in the control.
# [3] = tested on: upper respiratory tract ciliated epithelium; experiment: lifespan of the ciliated epithelium cilia / cell survival time in vitro (test sample vs isotonic NaCl control); format: cell-based, human (patients)
# Description: as §1, §2, §3, §4, §5
# [4] = average values over 5 patients / dilutions D3-C30
# [5] = dilution C3, single patient sample
# [6] = dilution C6, single patient sample
# [7] = dilution C30, single patient sample
# [8] = dilution D3, single patient sample
# [9] = dilution D6, single patient sample
compound,measurement,setting,value
CC(C)(O)C(Cl)(Cl)Cl [chlorbutol],ciliary beat frequency (CBF) reduced by,[1],100%
C[C@@H]1CN([C@H]2CC[C@](C#N)(c3ccc(F)cc3)CC2)CC[C@]1(C(=O)O)c1ccccc1 [levocabastine],ciliary beat frequency (CBF) reduced by,[1],13%
C[CH2][Hg][S]c1ccccc1C(=O)[O-].[Na+] [thiomersal],ciliary beat frequency (CBF) reduced by,[1],100%
neomycin,ciliary beat frequency (CBF) reduced by,[1],82%
"O.O.O.O=C([O-])[C@H]([O-])[C@@H]([O-])C(=O)[O-].O=C([O-])[C@H]([O-])[C@@H]([O-])C(=O)[O-].[K+].[K+].[Sb+3].[Sb+3] [Tartarus stibiatus, tartrate of antimony and potassium]","Frequency 1, Hz (beating frequency of the ciliated epithelium cilia in the test sample)",[2]; [4],5.2134 Hz
same,"Frequency 1, Hz (beating frequency of the ciliated epithelium cilia in the test sample)",[2]; [5],6.503 Hz
same,"Frequency 1, Hz (beating frequency of the ciliated epithelium cilia in the test sample)",[2]; [6],5.283 Hz
same,"Frequency 1, Hz (beating frequency of the ciliated epithelium cilia in the test sample)",[2]; [7],4.092 Hz
same,"Frequency 1, Hz (beating frequency of the ciliated epithelium cilia in the test sample)",[2]; [8],5.177 Hz
same,"Frequency 1, Hz (beating frequency of the ciliated epithelium cilia in the test sample)",[2]; [9],5.012 Hz
same,"Time 1, min (lifespan of the ciliated epithelium cilia in the test sample)",[3]; [4],24.6 min
same,"Time 1, min (lifespan of the ciliated epithelium cilia in the test sample)",[3]; [5],28 min
same,"Time 1, min (lifespan of the ciliated epithelium cilia in the test sample)",[3]; [6],20 min
same,"Time 1, min (lifespan of the ciliated epithelium cilia in the test sample)",[3]; [7],28 min
same,"Time 1, min (lifespan of the ciliated epithelium cilia in the test sample)",[3]; [8],27 min
same,"Time 1, min (lifespan of the ciliated epithelium cilia in the test sample)",[3]; [9],20 min
Cc1cc(C(C)(C)C)cc(C)c1CC1=NCCN1 [xylometazoline hydrochloride],ciliary beat frequency (CBF) reduced by,[1]; 0.1% solution,69%
